In patent US20170122958A1, “Enzymes Functional Probes” (University of Dundee, priority 2013, published 2017):

Key:
Brd2(2) Leu383-Ile = Brd2(2) Leu383-Ile (Homo sapiens, UniProt P25440, L383I); experiment: DSF thermal shift; type: binding; parameters: Plasmids of the eight single BET bromodomain constructs Brd2(1), Brd2(2), Brd3(1), Brd3(2); His6 (N); made in house; host or cells: E. coli BL21(DE3); conditions: mutant
Procedure: (§1) DSF assays were performed on a LightCycler®480 from Roche or a Mx3005P Real Time PCR machine from Stratagene. […] SYPRO®Orange from Invitrogen Molecular Probes® was used as a reporter dye to monitor the denaturing process of the proteins. Samples were assayed on a 96-well plate with final protein concentrations of 2 μM for the LightCycler®480 and 6 μM for Mx3005P. Compounds were added at a final concentration of 10 μM for the LightCycler®480 and 30 μM for Mx3005P, while the tetra acetylated histone peptide was added to a final concentration of 100 μM and 300 μM respectively. […] The temperature was raised with a step of 0.6° C. per minute from 37° C. to 95° C. with the LightCycler®480 collecting 39 measurements per ° C., and 1° C. per minute from 25° C. to 95° C. with Mx3005P, collecting fluorescence readings at the end of each interval. Each sample was run in triplicates.
(§2) Collected data was analysed by IGOR Pro 6, a scientific software tool from Wave Metrics, Inc. Analysis was done following the recommendations of Niesen et al.. Fluorescence intensity was plotted as a function of temperature, generating a sigmoidal curve described by a two-state transition from folded to unfolded protein. Curves were fitted by the following sigmoidal equation: […]
(§3) A1 and A2 are the values of minimum and maximum intensities, respectively, x0 is the inflection point and dx is the rate. Fitted curves were differentiated in IGOR Pro 6 and the maximum of the first derivative was identified using the same program. These values correspond to the inflection points of the transition curves and thus to the melting temperatures of the proteins (Tm).

Brd2(1) Leu110-Ile = Brd2(1) Leu110-Ile (Homo sapiens, UniProt P25440, L110I); experiment: DSF thermal shift; type: binding; parameters: Plasmids of the eight single BET bromodomain constructs Brd2(1), Brd2(2), Brd3(1), Brd3(2); His6 (N); made in house; host or cells: E. coli BL21(DE3); conditions: mutant
Chain of Brd2(1) Leu110-Ile (P25440 74-180 L110I limits assumed): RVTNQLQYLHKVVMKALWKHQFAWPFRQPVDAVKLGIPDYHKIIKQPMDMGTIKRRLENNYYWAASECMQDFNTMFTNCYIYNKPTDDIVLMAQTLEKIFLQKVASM
Procedure: as §1, §2, §3

Brd2(1)*(Leu110-Ala) = Brd2(1)*(Leu110-Ala) (Homo sapiens, UniProt P25440, L110A); experiment: DSF thermal shift; type: binding; parameters: Plasmids of the eight single BET bromodomain constructs Brd2(1), Brd2(2), Brd3(1), Brd3(2); His6 (N); made in house; host or cells: E. coli BL21(DE3); conditions: mutant
Chain of Brd2(1)*(Leu110-Ala) (P25440 74-180 L110A limits assumed): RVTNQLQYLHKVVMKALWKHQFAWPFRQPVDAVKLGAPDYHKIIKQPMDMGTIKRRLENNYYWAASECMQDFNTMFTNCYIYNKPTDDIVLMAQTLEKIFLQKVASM
Procedure: as §1, §2, §3

Brd2(2)*(Leu383-Ala) = Brd2(2)*(Leu383-Ala) (Homo sapiens, UniProt P25440, L383A); experiment: DSF thermal shift; type: binding; parameters: Plasmids of the eight single BET bromodomain constructs Brd2(1), Brd2(2), Brd3(1), Brd3(2); His6 (N); made in house; host or cells: E. coli BL21(DE3); conditions: mutant
Chain of Brd2(2)*(Leu383-Ala) (P25440 344-453 L383A limits assumed): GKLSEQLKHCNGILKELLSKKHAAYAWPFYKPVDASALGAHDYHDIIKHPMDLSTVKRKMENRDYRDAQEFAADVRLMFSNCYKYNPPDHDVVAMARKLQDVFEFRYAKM
Procedure: as §1, §2, §3

Brd2(2) = target: T1, Brd2(2) (Homo sapiens, UniProt P25440); experiment: DSF thermal shift; type: binding; conditions: wild type
T1 construct: Plasmids of the eight single BET bromodomain constructs Brd2(1), Brd2(2), Brd3(1), Brd3(2); His6 (N); made in house; host or cells: E. coli BL21(DE3)
T1 sequence (P25440 344-453 limits assumed): as the sequence (P25440 344-453 L383A limits assumed) above, with A40L counted along it
Procedure: as §1, §2, §3

Brd2(1) = target: T2, Brd2(1) (Homo sapiens, UniProt P25440); experiment: DSF thermal shift; type: binding; conditions: wild type
T2 construct: Plasmids of the eight single BET bromodomain constructs Brd2(1), Brd2(2), Brd3(1), Brd3(2); His6 (N); made in house; host or cells: E. coli BL21(DE3)
T2 sequence (P25440 74-180 limits assumed): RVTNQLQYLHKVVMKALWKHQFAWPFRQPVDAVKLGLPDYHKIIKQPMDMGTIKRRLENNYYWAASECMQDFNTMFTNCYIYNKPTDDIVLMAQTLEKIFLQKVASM
Procedure: as §1, §2, §3

Brd4(2) = target: T3, Brd4(2) (Homo sapiens, UniProt O60885); experiment: DSF thermal shift; type: binding; conditions: wild type
T3 construct: Plasmids of the eight single BET bromodomain constructs Brd2(1), Brd2(2), Brd3(1), Brd3(2), Brd4(1), Brd4(2), Brdt(1) and Brdt(2); His6 (N); made in house; host or cells: E. coli BL21(DE3)
Procedure: as §1, §2, §3

Brd4(1) = target: T4, Brd4(1) (Homo sapiens, UniProt O60885); experiment: DSF thermal shift; type: binding; conditions: wild type
T4 construct: Plasmids of the eight single BET bromodomain constructs Brd2(1), Brd2(2), Brd3(1), Brd3(2), Brd4(1), Brd4(2), Brdt(1) and Brdt(2); His6 (N); made in house; host or cells: E. coli BL21(DE3)
Procedure: as §1, §2, §3

[1] = test system: Brd2(1) and (2) wild type and leucine to alanine, valine and isoleucine mutants; experiment: DSF thermal stabilization (FIG. 15); type: binding, human; conditions: result in words
Procedure: as §1, §2, §3

Brd2(2)*(Met438-Leu) = target: T5, Brd2(2)*(Met438-Leu) (Homo sapiens, UniProt P25440, M438L); experiment: DSF thermal shift; type: binding; conditions: mutant
T5 construct: Plasmids of the eight single BET bromodomain constructs Brd2(1), Brd2(2), Brd3(1), Brd3(2); His6 (N); made in house; host or cells: E. coli BL21(DE3)
T5 sequence (P25440 344-453 M438L limits assumed): as the sequence (P25440 344-453 L383A limits assumed) above, with A40L, M95L counted along it
Procedure: (§4) DSF assays were performed on a LightCycler®480 from Roche or a Mx3005P Real Time PCR machine from Stratagene. Prior to DSF assays, frozen proteins were buffer exchanged using Vivaspin®6 concentrators with a 10 kDa cutoff on a Centrifuge 5430 from Eppendorf at a speed of 6000×g to remove glycerol and to buffer the proteins in 20 mM HEPES pH 7.5 at 25° C. and 100 mM NaCl. SYPRO®Orange from Invitrogen Molecular Probes® was used as a reporter dye to monitor the denaturing process of the proteins. Samples were assayed on a 96-well plate with final protein concentrations of 2 μM for the LightCycler®480 and 6 μM for Mx3005P. Compounds were added at a final concentration of 10 μM for the LightCycler®480 and 30 μM for Mx3005P, while the tetra acetylated histone peptide was added to a final concentration of 100 μM and 300 μM respectively. […] The temperature was raised with a step of 0.6° C. per minute from 37° C. to 95° C. with the LightCycler®480 collecting 39 measurements per ° C., and 1° C. per minute from 25° C. to 95° C. with Mx3005P, collecting fluorescence readings at the end of each interval. Each sample was run in triplicates.
as §2, §3

Brd2(1)*(Met165-Leu) = target: T6, Brd2(1)*(Met165-Leu) (Homo sapiens, UniProt P25440, M165L); experiment: DSF thermal shift; type: binding; conditions: mutant
T6 construct: Plasmids of the eight single BET bromodomain constructs Brd2(1), Brd2(2), Brd3(1), Brd3(2); His6 (N); made in house; host or cells: E. coli BL21(DE3)
T6 sequence (P25440 74-180 M165L limits assumed): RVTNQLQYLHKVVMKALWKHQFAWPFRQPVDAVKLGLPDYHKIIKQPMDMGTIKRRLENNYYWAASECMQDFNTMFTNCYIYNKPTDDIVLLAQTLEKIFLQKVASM
Procedure: as §4, §2, §3

Brd2(2)*(Met438-Ala) = target: T7, Brd2(2)*(Met438-Ala) (Homo sapiens, UniProt P25440, M438A); experiment: DSF thermal shift; type: binding; conditions: mutant
T7 construct: Plasmids of the eight single BET bromodomain constructs Brd2(1), Brd2(2), Brd3(1), Brd3(2); His6 (N); made in house; host or cells: E. coli BL21(DE3)
T7 sequence (P25440 344-453 M438A limits assumed): as the sequence (P25440 344-453 L383A limits assumed) above, with A40L, M95A counted along it
Procedure: as §4, §2, §3

Brd2(1)*(Met165Ala) = Brd2(1)*(Met165Ala) (Homo sapiens, UniProt P25440, M165A); experiment: DSF thermal shift; type: binding; parameters: Plasmids of the eight single BET bromodomain constructs Brd2(1), Brd2(2), Brd3(1), Brd3(2); His6 (N); made in house; host or cells: E. coli BL21(DE3); conditions: mutant
Chain of Brd2(1)*(Met165Ala) (P25440 74-180 M165A limits assumed): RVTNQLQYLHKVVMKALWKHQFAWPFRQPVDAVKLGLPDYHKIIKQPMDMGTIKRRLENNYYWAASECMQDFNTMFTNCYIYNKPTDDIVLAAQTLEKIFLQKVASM
Procedure: as §4, §2, §3

Solubility observations = conditions: observation in words

Chain of Brd2(2) Leu383-Ile (P25440 344-453 L383I limits assumed): as the sequence (P25440 344-453 L383A limits assumed) above, with A40I counted along it

Row | Structure (SMILES) | Thermal stabilisation brd2(2)V383I (Table 1); Brd2(2) Leu383-Ile (text) (Brd2(2) Leu383-Ile) | ΔTm Brd2(2)*(Leu383-Ile) (Brd2(2) Leu383-Ile) | Thermal stabilisation brd2(1)L110I (Brd2(1) Leu110-Ile) | ΔTm Brd2(1)*(Leu110-Ile) (Brd2(1) Leu110-Ile) | Thermal stabilisation brd2(1)L110A (Brd2(1)*(Leu110-Ala)) | ΔTm Brd2(1)*(Leu110-Ala) (Brd2(1)*(Leu110-Ala)) | Thermal stabilisation brd2(2)L383A (Brd2(2)*(Leu383-Ala)) | ΔTm Brd2(2)*(Leu383-Ala) (Brd2(2)*(Leu383-Ala)) | Thermal stabilisation brd2(2) (Brd2(2)) | ΔTm Brd2(2) (Brd2(2)) | Thermal stabilisation brd2(1) (Brd2(1)) | ΔTm Brd2(1) (Brd2(1)) | ΔTm Brd4(2) (Brd4(2)) | ΔTm Brd4(1) (Brd4(1)) | Thermal stabilization of Brd2 mutants versus wild types (FIG. 15) [1] | ΔTm Brd2(2)*(Met165-Leu) (Brd2(2)*(Met438-Leu)) | ΔTm Brd2(1)*(Met165-Leu) (Brd2(1)*(Met165-Leu)) | ΔTm Brd2(2)*(Met165-Ala) (Brd2(2)*(Met438-Ala)) | ΔTm Brd2(1)*(Met165-Ala) (Brd2(1)*(Met165Ala)) | Solubility (Solubility observations)
1 | COC(=O)CC1(C)N=C(c2ccc(Cl)cc2)c2cc(OC)ccc2-n2c(C)nnc21 (racemic) [Compound 5, (+−)-methyl 2-(6-(4-chlorophenyl)-8-methoxy-1,4-dimethyl-4H-benzo[f][1,2,4]triazolo[4,3-a][1,4]diazepin-4-yl)acetate] | 6.8 ± 0.1 °C | 6.8 ± 0.1 K | 3.3 ± 0.4 °C | 3.3 ± 0.3 K | 2.9 ± 0.4 °C | 2.9 ± 0.4 K | 6.6 ± 0.4 °C | 6.6 ± 0.4 K | 5.3 ± 0.3 °C | 5.3 ± 0.3 K | 2.2 ± 0.3 °C | 2.2 ± 0.3 K |  |  |  |  |  |  |  | 
2 | COC(=O)[C@@H](C)[C@@H]1N=C(c2ccc(Cl)cc2)c2cc(OC)ccc2-n2c(C)nnc21 (racemic) [Compound 6, (+−)-methyl (S)-2-((S)-6-(4-chlorophenyl)-8-methoxy-1-methyl-4H-benzo[f][1,2,4]triazolo[4,3-a][1,4]diazepin-4-yl)propanoate] | 0.3 ± 0.2 °C | 0.3 ± 0.2 K | 0.0 ± 0.5 °C | 0.0 ± 0.5 K | 1.6 ± 0.2 °C | 1.6 ± 0.2 K | 0.8 ± 0.6 °C | 0.8 ± 0.6 K | 0.2 ± 0.2 °C | 0.2 ± 0.2 K | −0.3 ± 0.2 °C | −0.3 ± 0.2 K |  |  |  |  |  |  |  | 
3 | CC[C@H](C(=O)OC)[C@@H]1N=C(c2ccc(Cl)cc2)c2cc(OC)ccc2-n2c(C)nnc21 (racemic) [Compound 14, (+−)-methyl (S)-2-((S)-6-(4-chlorophenyl)-8-methoxy-1-methyl-4H-benzo[f][1,2,4]triazolo[4,3-a][1,4]diazepin-4-yl)butanoate] |  | 0.9 ± 0.3 K |  | 0.5 ± 0.0 K |  | 1.8 ± 0.4 K |  | 2.4 ± 0.6 K |  | 0.9 ± 0.4 K |  | 1.0 ± 0.3 K | 0.1 ± 0.1 K | 0.5 ± 0.1 K |  |  |  |  |  | 
4 | COC(=O)CC1N=C(c2ccc(Cl)cc2)c2cc(OC)ccc2-n2c(C)nnc21 (racemic) [I-BET-OMe, (+−)-methyl 2-(6-(4-chlorophenyl)-8-methoxy-1-methyl-4H-benzo[f][1,2,4]triazolo[4,3-a][1,4]diazepin-4-yl)acetate, reference compound] |  |  |  |  |  |  |  |  |  |  |  |  |  |  | no selective stabilization of the mutant proteins |  |  |  |  | 
5 | COc1ccc(-c2ccc(S(=O)(=O)Nc3ccc4c(c3)CN(C)C(=O)N4)cc2)cc1 [Compound 50, 4′-methoxy-N-(3-methyl-2-oxo-1,2,3,4-tetrahydroquinazolin-6-yl)-[1,1′-biphenyl]-4-sulfonamide] |  |  |  |  |  |  |  |  |  | 0.7 ± 0.2 K |  |  |  |  |  | 3.8 ± 0.2 K | 1.7 ± 0.1 K | 4.1 ± 0.1 K | 5.3 ± 0.3 K | solubility of the compound decreased
6 | Cc1cccc(S(=O)(=O)Nc2ccc3c(c2)CN(C)C(=O)N3)c1 [Compound 53, 3-methyl-N-(3-methyl-2-oxo-1,2,3,4-tetrahydroquinazolin-6-yl)benzenesulfonamide] |  |  |  |  |  |  |  |  |  | 0.7 ± 0.1 K |  | 0.0 ± 0.3 K |  |  |  | 0.0 ± 0.0 K | 0.0 ± 0.1 K | 0.0 ± 0.1 K | 0.0 ± 0.1 K | low solubility
